What was measured:
Type in all cases: cell-based, Oocyte
[1] = molecular target: Glutamate NMDA receptor; Grin1/Grin2c (Rattus norvegicus, UniProt P35439+Q00961); assay: Functional antagonism by electrical assays in Xenopus oocytes expressing the 1A/2C NMDA receptor
[2] = molecular target: Glutamate NMDA receptor; Grin1/Grin2b (Rattus norvegicus, UniProt P35439+Q00960); assay: Functional antagonism by electrical assays in Xenopus oocytes expressing the 1A/2B NMDA receptor
[3] = molecular target: Glutamate NMDA receptor; Grin1/Grin2a (Rattus norvegicus, UniProt P35439+Q00959); assay: Functional antagonism by electrical assays in Xenopus oocytes expressing 1A/2A NMDA receptor subtype
Chain of Glutamate NMDA receptor; Grin1/Grin2a (Q00959 whole entry, other chains not shown): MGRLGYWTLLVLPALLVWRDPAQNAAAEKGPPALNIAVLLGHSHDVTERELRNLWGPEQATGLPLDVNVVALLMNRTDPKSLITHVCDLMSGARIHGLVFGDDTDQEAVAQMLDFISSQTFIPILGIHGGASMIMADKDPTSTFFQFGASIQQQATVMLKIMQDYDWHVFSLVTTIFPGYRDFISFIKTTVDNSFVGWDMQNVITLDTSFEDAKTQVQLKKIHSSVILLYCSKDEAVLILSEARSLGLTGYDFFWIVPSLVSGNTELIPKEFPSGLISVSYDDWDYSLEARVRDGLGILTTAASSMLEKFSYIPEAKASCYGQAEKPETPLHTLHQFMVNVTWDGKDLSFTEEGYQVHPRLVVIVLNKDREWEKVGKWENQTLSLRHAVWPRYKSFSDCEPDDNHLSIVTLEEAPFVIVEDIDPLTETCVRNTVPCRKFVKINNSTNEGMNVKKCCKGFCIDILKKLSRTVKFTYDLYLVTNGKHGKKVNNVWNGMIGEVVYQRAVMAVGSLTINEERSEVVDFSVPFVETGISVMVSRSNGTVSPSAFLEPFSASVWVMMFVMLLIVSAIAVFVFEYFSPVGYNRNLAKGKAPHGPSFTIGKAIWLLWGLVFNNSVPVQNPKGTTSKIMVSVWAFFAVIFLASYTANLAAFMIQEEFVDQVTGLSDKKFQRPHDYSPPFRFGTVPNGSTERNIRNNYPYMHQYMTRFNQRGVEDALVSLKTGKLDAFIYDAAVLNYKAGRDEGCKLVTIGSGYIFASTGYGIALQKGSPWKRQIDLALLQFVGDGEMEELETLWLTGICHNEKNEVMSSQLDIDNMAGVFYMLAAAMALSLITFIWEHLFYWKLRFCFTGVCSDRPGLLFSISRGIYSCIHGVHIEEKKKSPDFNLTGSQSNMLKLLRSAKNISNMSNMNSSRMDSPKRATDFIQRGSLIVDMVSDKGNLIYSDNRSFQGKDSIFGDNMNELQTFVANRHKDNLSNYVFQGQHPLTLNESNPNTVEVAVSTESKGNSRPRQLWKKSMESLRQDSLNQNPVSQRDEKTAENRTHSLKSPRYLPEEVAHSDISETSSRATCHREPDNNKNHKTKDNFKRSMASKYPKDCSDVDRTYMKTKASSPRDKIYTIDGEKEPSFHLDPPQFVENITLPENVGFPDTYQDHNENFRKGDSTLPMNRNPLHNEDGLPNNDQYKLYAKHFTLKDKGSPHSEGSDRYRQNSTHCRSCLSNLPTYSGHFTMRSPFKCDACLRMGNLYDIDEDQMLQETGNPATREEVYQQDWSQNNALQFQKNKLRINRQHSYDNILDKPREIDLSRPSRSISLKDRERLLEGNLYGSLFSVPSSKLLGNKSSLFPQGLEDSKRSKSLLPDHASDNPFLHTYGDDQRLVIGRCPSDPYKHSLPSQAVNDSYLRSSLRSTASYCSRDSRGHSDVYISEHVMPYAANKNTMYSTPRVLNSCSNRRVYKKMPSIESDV

Chain of Glutamate NMDA receptor; Grin1/Grin2b (Q00960 whole entry, other chains not shown): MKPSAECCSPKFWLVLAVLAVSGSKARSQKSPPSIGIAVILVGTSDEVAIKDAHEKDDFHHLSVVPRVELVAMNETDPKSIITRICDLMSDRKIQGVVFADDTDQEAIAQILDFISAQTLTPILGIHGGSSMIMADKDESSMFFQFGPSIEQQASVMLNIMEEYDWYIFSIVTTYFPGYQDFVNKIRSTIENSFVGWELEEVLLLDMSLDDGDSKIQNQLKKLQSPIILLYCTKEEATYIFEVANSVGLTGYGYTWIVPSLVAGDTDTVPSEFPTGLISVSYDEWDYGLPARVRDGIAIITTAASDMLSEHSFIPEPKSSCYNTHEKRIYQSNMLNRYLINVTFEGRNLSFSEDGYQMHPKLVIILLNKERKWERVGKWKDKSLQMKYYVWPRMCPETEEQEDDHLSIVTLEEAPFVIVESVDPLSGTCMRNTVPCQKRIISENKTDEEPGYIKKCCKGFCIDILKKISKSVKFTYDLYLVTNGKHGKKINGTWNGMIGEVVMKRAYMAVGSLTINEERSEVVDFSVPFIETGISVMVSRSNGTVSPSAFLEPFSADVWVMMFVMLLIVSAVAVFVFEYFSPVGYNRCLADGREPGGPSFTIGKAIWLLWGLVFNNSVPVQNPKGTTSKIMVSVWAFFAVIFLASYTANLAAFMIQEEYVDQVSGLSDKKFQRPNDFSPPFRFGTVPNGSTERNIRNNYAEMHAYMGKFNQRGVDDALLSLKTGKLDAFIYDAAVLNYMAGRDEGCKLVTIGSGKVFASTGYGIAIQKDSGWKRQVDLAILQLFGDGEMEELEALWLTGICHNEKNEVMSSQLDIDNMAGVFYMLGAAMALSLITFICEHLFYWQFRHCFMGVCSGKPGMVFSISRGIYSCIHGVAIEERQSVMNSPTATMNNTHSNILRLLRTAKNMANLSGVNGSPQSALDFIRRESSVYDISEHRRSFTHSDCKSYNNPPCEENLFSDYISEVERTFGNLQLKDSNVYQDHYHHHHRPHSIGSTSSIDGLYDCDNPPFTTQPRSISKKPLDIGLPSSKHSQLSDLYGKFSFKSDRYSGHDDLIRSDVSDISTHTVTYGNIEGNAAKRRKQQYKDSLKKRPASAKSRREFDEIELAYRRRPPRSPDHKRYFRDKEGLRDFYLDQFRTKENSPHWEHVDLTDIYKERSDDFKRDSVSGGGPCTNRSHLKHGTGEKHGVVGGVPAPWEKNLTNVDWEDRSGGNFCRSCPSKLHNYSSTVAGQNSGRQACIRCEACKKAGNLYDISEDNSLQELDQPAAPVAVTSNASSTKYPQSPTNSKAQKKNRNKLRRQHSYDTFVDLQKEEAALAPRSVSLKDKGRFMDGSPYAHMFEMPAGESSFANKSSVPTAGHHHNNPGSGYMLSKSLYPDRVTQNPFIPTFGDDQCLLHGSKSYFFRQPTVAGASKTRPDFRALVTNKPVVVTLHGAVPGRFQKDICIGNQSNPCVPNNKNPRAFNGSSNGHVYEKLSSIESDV
Chain of Glutamate NMDA receptor; Grin1/Grin2c (Q00961 whole entry, other chains not shown): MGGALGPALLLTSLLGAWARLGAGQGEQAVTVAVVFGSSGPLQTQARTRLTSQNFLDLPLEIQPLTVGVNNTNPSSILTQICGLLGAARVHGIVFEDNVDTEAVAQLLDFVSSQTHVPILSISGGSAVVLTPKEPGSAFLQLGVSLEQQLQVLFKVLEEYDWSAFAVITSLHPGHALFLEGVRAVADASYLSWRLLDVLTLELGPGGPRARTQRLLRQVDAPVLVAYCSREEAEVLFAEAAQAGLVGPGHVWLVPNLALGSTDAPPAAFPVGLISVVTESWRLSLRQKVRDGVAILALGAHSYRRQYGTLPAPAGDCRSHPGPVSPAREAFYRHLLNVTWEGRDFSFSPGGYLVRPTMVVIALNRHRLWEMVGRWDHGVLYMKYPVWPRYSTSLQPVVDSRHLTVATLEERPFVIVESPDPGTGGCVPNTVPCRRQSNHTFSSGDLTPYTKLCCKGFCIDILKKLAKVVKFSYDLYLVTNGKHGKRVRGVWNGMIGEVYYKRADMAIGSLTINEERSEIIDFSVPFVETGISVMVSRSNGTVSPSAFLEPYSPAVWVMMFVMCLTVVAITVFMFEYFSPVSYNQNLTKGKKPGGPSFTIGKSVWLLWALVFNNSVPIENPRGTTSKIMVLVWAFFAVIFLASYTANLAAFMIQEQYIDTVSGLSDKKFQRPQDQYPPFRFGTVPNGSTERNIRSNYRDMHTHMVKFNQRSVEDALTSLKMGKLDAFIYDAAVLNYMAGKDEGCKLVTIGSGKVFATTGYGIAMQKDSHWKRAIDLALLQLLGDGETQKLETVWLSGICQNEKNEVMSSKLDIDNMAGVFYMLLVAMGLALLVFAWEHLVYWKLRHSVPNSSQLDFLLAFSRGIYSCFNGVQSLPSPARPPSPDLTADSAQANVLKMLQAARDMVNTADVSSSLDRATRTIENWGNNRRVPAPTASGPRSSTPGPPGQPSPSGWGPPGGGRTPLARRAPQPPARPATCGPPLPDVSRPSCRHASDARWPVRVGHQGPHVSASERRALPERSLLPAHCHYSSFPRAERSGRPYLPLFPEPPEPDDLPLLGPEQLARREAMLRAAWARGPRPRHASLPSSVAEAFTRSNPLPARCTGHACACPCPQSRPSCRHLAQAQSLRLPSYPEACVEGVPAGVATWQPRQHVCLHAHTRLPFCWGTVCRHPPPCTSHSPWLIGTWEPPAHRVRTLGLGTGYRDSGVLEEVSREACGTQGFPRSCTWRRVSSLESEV

| SMILES | IC50 [1] [µM] | IC50 [2] [µM] | IC50 [3] [µM] |
| --- | --- | --- | --- |
| c1ccc(CCCNCCc2ccccc2)cc1 | > 100 | 7.3 | > 100 |
| c1ccc(CCCCNCCc2ccccc2)cc1 | 36 | 3.5 | 46 |
| Oc1ccc(CCN2CCC(Cc3ccccc3)CC2)cc1 | > 100 | 0.2 | 57 |
| c1ccc(CCN2CCC(Cc3ccccc3)CC2)cc1 | > 100 | 1.1 | > 100 |
| Oc1ccc(CCCNCCCCCc2ccccc2)cc1 | 39 | 0.045 | 18 |
| Oc1ccc(CCNCCCCCc2ccccc2)cc1 | 39 | 0.008 | 12 |
| Oc1ccc(CCNCCCc2ccccc2)cc1 | > 100 | 0.096 | 26 |
| Oc1ccc(CCNCCCCc2ccccc2)cc1 | 65 | 0.043 | 15 |
| CCN(CCCCc1ccccc1)CCc1ccc(O)cc1 | 88 | 0.3 | 27 |
| Oc1ccc(CCOCCCCc2ccccc2)cc1 | > 100 | 3.7 | > 100 |
| Oc1ccc(CCNCCCCCCc2ccccc2)cc1 | 30 | 0.035 | 17 |
| Oc1ccc(CCCNCCCCc2ccccc2)cc1 | 48 | 0.015 | 18 |
| C[C@H](CCc1ccccc1)N[C@H](C)[C@@H](O)c1ccc(O)cc1 | 42 | 0.18 |  |

Source: ChEMBL document CHEMBL1131085, “Structure-activity relationships for a series of bis(phenylalkyl)amines: potent subtype-selective inhibitors of N-methyl-D-aspartate receptors” (J Med Chem, 1998)
